Experiments:
[1] = test system: antibodies of pool of serum from patients with Crohn's disease; test: ELISA reactivity of pool of patient serums (ASCA test) with plates sensitized with synthetic antigen; assay type: binding; conditions: FIG. 9, pool of patient serums used to standardize the ASCA test
Excerpt: It has been shown that one of the major epitopes against which was directed the ASCA response of patients with Crohn's diseases was a mannotetraose of formula Man α-1,3 Man α-1,2 Man α-1,2 Man (Sendid, B. et al., 1996, Clin. Diagn. Lab. Immunol. 3: 219–26; Young, M. et al., 1998, Glycoconj. J. 15: 815–22).

[2] = test system: Factor 34; test: ELISA antigenic reactivity with antigenic factor 34; assay type: binding, rabbit; conditions: FIG. 8
Method: Monospecific polyclonal antibodies from Iatron were prepared by immunization of rabbits with whole yeasts then adsorbed by yeasts of heterologous species. Used as a battery, they enable identification by agglutination of the principal species of Candida implicated in human pathology. Each of these “factors” reacts with specific epitopes which were identified by any entire series of immunochemical studies performed in Japan. The results of these studies were summarized in the publication by S. Suzuki (Suzuki, S. et al., 1997, Curr. Top. Med. Mycol. 8: 57–70).
According to the immunochemical studies performed on the Iatron serums, this structure should react with Factor 34 (Suzuki, S. et al., 1997, Curr. Top. Med. 8: 57–70).

[3] = test system: C. albicans (SA-40); test: Experimental model of vaginal candidiasis in the rat, inhibition of colonization; assay type: in vivo; conditions: for inhibition of colonization/infection (in words): administration 1 h, α control even at the maximum dose; for inhibition of colonization/infection (in words) / level of colonization (colony-forming units in vaginal secretions): 24 h and 48 h after inoculation; for level of colonization (colony-forming units in vaginal secretions): rat
Method: Ovarectomized female rats were maintained in pseudo-estrus by subcutaneous injection of 0.5 mg of estradiol benzoate every 2 days during the duration of the experiments. The animals were inoculated with 0.1 ml of a 10^7 yeast solution. The kinetics of the infection were monitored by determining the number of yeasts present in the vaginal secretions. 1 μl of secretion was collected with a calibrated plastic loop and spread over a dish of Sabouraud's agar plus antibiotics; the colony-forming units were counted after 48 hours of incubation at 28° C. […] 1: the β-1,2 mannotetraose (100 μg) was administered 1 hour before inoculation. 2: 1 hour after inoculation. 3: 1 h, 24 h and 48 h after inoculation. We used a model of vaginal candidiasis recognized by the international community and with which the most pertinent animal experiments to date have been performed. The results obtained in two experimental series were in perfect agreement. […] Even at the maximum dose, the α-1,2 oligomannosides administered in the same manner as control has no effect as shown in Table 3 below.

[4] = test system: C. albicans strain 10261 (4277); test: Gastrointestinal colonization of neonatal mice by C. albicans, prophylactic synthetic tetramannosides; assay type: in vivo, mouse; conditions: for effect on gastrointestinal colonization by C. albicans (in words) / reduction in intestinal colonization (in words): mice; for effect on gastrointestinal colonization by C. albicans (in words): administration prior to inoculation, versus control; for reduction in intestinal colonization (in words): dose of 150 μg by gavage prior to inoculation; for degree of gastrointestinal colonization, median of CFUs: young mice, CFU/dropping 7 days after the inoculation
Method: The mothers and their litters (10 to 15 baby mice/litter) were received on the 4th day of life (line CD-1® (Crl: CD-1® (ICR) BR, Charles River, Saint Aubin les Elbeuf, France). The animals were inoculated on the 6th day of life. There was always a separation from the mother for 3 hours prior to gavage and a one hour interval after inoculation.
Two strains of C. albicans were used, strain 4276 which expresses a small amount of β-1,2 oligomannosides at its surface and strain 4277 which expresses a large amount. Prior to each use, the strains were re-inoculated on Sabouraud-chloramphenicol (SC) agar from a culture stored at −80° C. in PBS-40% glycerol. After incubation for 24 hours at 35° C., the yeasts were washed 3 time in sterile physiological water (NaCl 0.9%, water φ) and the suspension was adjusted to 2×10^9/ml. The viability of the inoculum was verified for each experiment by sowing suitable dilutions of the yeast suspensions on SC agar in Petri dishes.
[…] The sugars were diluted in sterile water to obtain the desired concentration (see results) in a volume of 50 μl. Two independent experiments were carried out. In the first, 4 litters infected with strain 4277 were compared after administration, respectively, of water (litter 1), of 50 μg pf αMan (litter 2), 150 μg of βMan (litter 3) or 150 μg of 0αMan (litter 4). In the second experiment, four litters were infected either with strain 4276 (litters 1 and 2) or with strain 4277 (litters 3 and 4) after treatment with water (litters 1 and 3) or 50 μg of bMan (litters 2 and 4).
• Mortality: the cages were monitored once daily and the number of mice was recorded. • Gastrointestinal colonization: sequentially, beginning on day 7 after the inoculation, one dropping was collected from each mouse, ground in 100 μl of sterile water with a small piston adapted to function in 1.5-ml Eppendorf tubes and the total volume was inoculated on SC agar in a Petri dish. The number of colony forming units (CFU) was counted after 24 hours of incubation at 30° C. When the CFU density prevented counting, a score was attributed on the basis of the appearance of the culture so as to allow statistical comparisons: 2 or 1000 CFU, 3 or 10,000 CFU, 4 or 100,000 CFU. 7) Statistical Analysis
The gastrointestinal colonizations according to the infecting strain and according to the treatment preceding the inoculation were compared using a nonparametric test (Mann-Whitney or Kruskall-Wallis test, depending on the number of groups) using the program Statview 4.5 for Macintosh. The percentages of positive cultures or deaths on day 1 were compared with the Fisher exact test.

[5] = strain 10261, 150 μg by gavage prior to inoculation

Row | Compound | inhibition of colonization/infection (in words) ([3]; rat vaginal candidiasis) | level of colonization (colony-forming units in vaginal secretions) ([3]; SA-40, 50 γ 1 h, day 0) | level of colonization (colony-forming units in vaginal secretions) ([3]; SA-40, 50 γ 1 h, day 1) | level of colonization (colony-forming units in vaginal secretions) ([3]; SA-40, 50 γ 1 h, day 2) | level of colonization (colony-forming units in vaginal secretions) ([3]; SA-40, 50 γ 1 h, day 5) | level of colonization (colony-forming units in vaginal secretions) ([3]; SA-40, 50 γ 1 h, day 7) | level of colonization (colony-forming units in vaginal secretions) ([3]; SA-40, 50 γ 1 h, day 14) | level of colonization (colony-forming units in vaginal secretions) ([3]; SA-40, 50 γ 1 h, day 21) | level of colonization (colony-forming units in vaginal secretions) ([3]; SA-40, 100 γ 1 h, day 0) | level of colonization (colony-forming units in vaginal secretions) ([3]; SA-40, 100 γ 1 h, day 1) | level of colonization (colony-forming units in vaginal secretions) ([3]; SA-40, 100 γ 1 h, day 2) | level of colonization (colony-forming units in vaginal secretions) ([3]; SA-40, 100 γ 1 h, day 5) | level of colonization (colony-forming units in vaginal secretions) ([3]; SA-40, 100 γ 1 h, day 7) | level of colonization (colony-forming units in vaginal secretions) ([3]; SA-40, 100 γ 1 h, day 14) | level of colonization (colony-forming units in vaginal secretions) ([3]; SA-40, 100 γ 1 h, day 21) | effect on gastrointestinal colonization by C. albicans (in words) [4] | reduction in intestinal colonization (in words) [4] | degree of gastrointestinal colonization, median of CFUs [4, 5] [CFU] | other results
1 | 8-carboxyloctyl 2-O-(2-O-(3-O-α-D-mannopyranosyl)-α-D-mannopyranosyl)-α-D-mannopyranosyl)-α-D-mannopyranoside [III] | – | – | – | – | – | – | – | – | – | – | – | – | – | – | – | – | – | – | fixation of patient antibodies (in words) [1]: affix according to a reaction dependent on the dose of synthetic antigen; antigenic reactivity with Factor 34 (in words) [2]: results observed correspond to the anticipated results
2 | OC[C@H]1O[C@H](O[C@@H]2[C@@H](O[C@@H]3[C@@H](O[C@@H]4C(O)O[C@H](CO)[C@@H](O)[C@@H]4O)O[C@H](CO)[C@@H](O)[C@@H]3O)O[C@H](CO)[C@@H](O)[C@@H]2O)[C@@H](O)[C@@H](O)[C@@H]1O (stereo partly drawn) [αM A N, D-Man α(1-2) D-Man α(1-2) D-Man α(1-2) D-Man] | no effect | >100 | >100 | 95 ± 2 | 86 ± 4 | 69 ± 6 | 48 ± 4 | 21 ± 4 | >100 | >100 | 93 ± 3 | 83 ± 5 | 71 ± 6 | 495 | 22.4 ± 3.4 | did not modify the degree of gastrointestinal colonization | not seen | 258 | –
3 | OC[C@H]1O[C@@H](O[C@@H]2[C@H](O[C@@H]3[C@H](O[C@@H]4C(O)O[C@H](CO)[C@@H](O)[C@@H]4O)O[C@H](CO)[C@@H](O)[C@@H]3O)O[C@H](CO)[C@@H](O)[C@@H]2O)[C@@H](O)[C@@H](O)[C@@H]1O (stereo partly drawn) [βM 4, D-Man β(1-2) D-Man β(1-2) D-Man β(1-2) D-Man] | reduced colonization by C. albicans in a very significant manner | >100 | >100 | 88 ± 6 | 62 ± 4 | 57 ± 3 | 23 ± 5 | <1 | >100 | 87 ± 6 | 83 ± 8 | 40 ± 6 | 54 ± 8 | 45 ± 14 | <1 | very protective | almost total reduction | 5 | inhibition of colonization/infection (in words) ([3]; rat vaginal candidiasis, listed as synthetic β-1,2 oligomannosides): dose-dependent relation of inhibition of colonization/infection; carrier state of C. albicans (in words) ([3]; rat vaginal candidiasis, at the end of the experiments): no longer be carriers of C. albicans; change of level of colonization (in words) ([3]; rat vaginal candidiasis, beginning on the first day of administration): decreased by close to half; level of colonization (colony-forming units in vaginal secretions) ([3]; SA-40, 150 γ 1 h, day 0): >100; level of colonization (colony-forming units in vaginal secretions) ([3]; SA-40, 150 γ 1 h, day 1): 62 ± 7; level of colonization (colony-forming units in vaginal secretions) ([3]; SA-40, 150 γ 1 h, day 2): 54 ± 0; level of colonization (colony-forming units in vaginal secretions) ([3]; SA-40, 150 γ 1 h, day 5): 27 ± 3; level of colonization (colony-forming units in vaginal secretions) ([3]; SA-40, 150 γ 1 h, day 7): 28 ± 4; level of colonization (colony-forming units in vaginal secretions) ([3]; SA-40, 150 γ 1 h, day 14): 5.6 ± 3; level of colonization (colony-forming units in vaginal secretions) ([3]; SA-40, 150 γ 1 h, day 21): <1; effect on gastrointestinal colonization by C. albicans (in words) ([4]; listed as synthetic β-1,2 tetramannosides): drastic, dose-dependent reduction in the number of yeasts found in the stools; effect on gastrointestinal colonization by C. albicans (in words) ([4]; listed as βMan): significantly decreased the degree of colonization; degree of gastrointestinal colonization, median of CFUs ([4]; strain 10261, 50 μg by gavage prior to inoculation): 48.5 CFU
